Experimental data published in the METLIN SMRT retention time set (Domingo-Almenara et al. 2019).

Test: gradient 5% acetonitrile 3 min, to 50% in 2 min, to 85% in 15 min, held 3 min, 100 µL/min
Conditions: column: Zorbax Extend-C18 2.1 x 50 mm; eluents: water / acetonitrile, 0.1% formic acid
Procedure, shortened: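 Values are retention times taken from adduct peaks that software picked and an analyst inspected. The pure standards were run as mixtures of ~100 molecules on HPLC linked to a quadrupole time-of-flight mass spectrometer, in positive and negative ionization mode. A Zorbax Extend-C18 column (2.1 × 50 mm, 1.8 μm) was used at 100 μL/min with water and acetonitrile, each including 0.1% formic acid.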

Row | RP-LC retention time [s] | SMILES
1 | 1010 | COc1cc(NC(=O)c2csc(-c3cn(C)c4ncccc34)n2)cc(OC)c1
2 | 920 | Cn1nc(-c2nc(C3CC3)no2)c2c1CCN(S(=O)(=O)c1cccc(F)c1)C2
3 | 955 | CC1CCCN(c2cc(SCC(=O)Nc3ccc(F)cc3)ncn2)C1 (centres undefined)
4 | 688 | O=c1c2cc(-c3cccs3)nn2ccn1Cc1noc(CN2CCCCCCC2)n1
5 | 806 | CCc1onc(C)c1C1CCCN1C(=O)Nc1ccc(C(=O)OC)cc1 (centres undefined)
6 | 584 | CCN1CCN(CCCNc2nnc(-c3nc(C4CC4)no3)c3ccccc23)CC1
7 | 675 | COC(=O)c1cccc(NC(=O)C2CCN(c3c(C#N)cnc4ccccc34)CC2)c1
8 | 646 | CCc1ccccc1NC(=O)Cn1cnc2nc(N3CCCC(C(=O)NC)C3)sc2c1=O (centres undefined)
9 | 823 | CCC(=O)NC(C)c1nc(-c2ccc(Cl)cc2)no1 (centres undefined)
10 | 657 | COCCc1nncn1C1CCN(C(=O)c2cc(Cl)ccc2F)CC1
11 | 672 | O=C(CN1CCC(c2nc(-c3cccs3)no2)CC1)NCc1ccc2c(c1)OCO2
12 | 777 | COCCn1nnnc1C1CC2(CCOCC2)C(=O)N1Cc1ccc(SC)cc1 (centres undefined)
13 | 641 | N#Cc1cccc(-c2cn3c(n2)N(C(=O)c2cccnc2)CCC3)c1
14 | 762 | COc1ccc(Cl)c2c(=O)c3c([nH]c12)CCN(CC(=O)Nc1ccc(C)c(Cl)c1)C3
15 | 1230 | O=C(COc1cc(O)c2c(=O)c3ccccc3oc2c1)c1ccc(Cl)cc1
16 | 570 | Cc1cc(C)n2c(C)nnc2c1
17 | 1070 | Clc1cccc(-c2noc(Cc3nnc(-c4ccccc4)o3)n2)c1
18 | 668 | COc1cc(NC(=O)C2=C(C)OCCS2)c(Cl)cc1C(=O)N1CCN(c2ccccn2)CC1
19 | 693 | Cc1ccc(C(=O)NCc2ccc3c(c2)nnn3C)cc1
20 | 692 | CCOc1cc(-c2cccc(Cl)c2)nc2ccc(C(=O)N3CCN(c4ccccn4)CC3)cc12

Row | RP-LC retention time [s] | SMILES
21 | 830 | CCc1cc(=O)n(CC(=O)Nc2ccccc2Cl)c(N2CCOCC2)n1
22 | 819 | CC(CNC(=O)CCn1c(N2CCCC2)nc2ccsc2c1=O)c1ccccc1 (centres undefined)
23 | 842 | O=C(Cn1c(=O)c(CCC(=O)NC2CCCC2)nc2ccccc21)NCc1ccccc1Cl
24 | 958 | Cc1cc(Cl)cc2sc(NCC3CCCO3)nc12 (centres undefined)
25 | 1420 | CCc1ccc(OCc2nc(C)c(C(=O)Nc3nc(-c4ccc(C)cc4)cs3)s2)cc1
26 | 755 | O=C(CCn1c(N2CCCC2)nc2ccsc2c1=O)NCc1ccc(F)cc1
27 | 616 | O=S(=O)(Cc1cccc(Cl)c1)N1CCc2nc[nH]c2C1
28 | 967 | Cc1ccccc1NS(=O)(=O)c1cc2c3c(c1)CCC(=O)N3CCC2
29 | 996 | Cc1c(-c2noc(-c3ccc4cc[nH]c4c3)n2)nnn1Cc1cccc(F)c1
30 | 626 | CN(C)CCNC(=O)c1nc2ccccn2c1-c1ccc(Cl)cc1
31 | 687 | CC(=O)NC(C)c1nc(-c2ccccc2Cl)no1 (centres undefined)
32 | 1180 | Cc1ccc(-c2noc(Cn3c(=O)n(Cc4ccc5c(c4)OCO5)c(=O)c4sccc43)n2)cc1C
33 | 874 | CC(C)(Oc1ccc(Cl)cc1)C(=O)NCC1CCN(C(=O)Nc2ccc(F)cc2)CC1
34 | 940 | Cc1nn(-c2ccc(-c3noc(C4CC4)n3)cc2)cc1C(=O)NC1CCCC1
35 | 984 | Cc1cccc(-c2nc3nc(C)cc(Nc4cccc5nsnc45)n3n2)c1
36 | 764 | CCc1cc(=O)n(CC(=O)Nc2cccc(C)c2C)c(N2CCOCC2)n1
37 | 614 | Cc1ccc2cc(CCC(=O)NC3CCN(Cc4ccccc4)CC3)c(=O)[nH]c2c1
38 | 634 | CN1CCN(C(=O)C(=O)Nc2c3c(nn2-c2ccc(Cl)cc2)CSC3)CC1
39 | 639 | CC1CCN(C(=O)c2cc3c(s2)CCC(C(=O)NCc2cccnc2)C3)CC1 (centres undefined)

Continued, molecule first:

Row | SMILES | RP-LC retention time [s]
40 | COCCCn1c(=O)c2ccccc2n(Cc2nc(-c3ccc(F)cc3)no2)c1=O | 1010
41 | CC1Cc2ccccc2N1C(=O)c1coc(NC(=O)c2ccco2)n1 (centres undefined) | 724
42 | CCCNC(=O)CCc1nc2ccccc2n(CC(=O)Nc2ccc(OCC)cc2)c1=O | 788
43 | CCCNC(=O)C1CCCN(c2ccc(SCC(=O)Nc3ccc(S(C)(=O)=O)cc3)nn2)C1 (centres undefined) | 614
44 | Cn1ncc2c(Nc3cccc([N+](=O)[O-])c3)ncnc21 | 683
45 | O=C(NCc1ccco1)c1c(O)c2cccnc2n(-c2ccc(F)cc2)c1=O | 1280
46 | CCn1cc(C)c(C(=O)O)c1CC(=O)N1CCc2ccccc2C1 | 780
47 | CCOC(=O)COC(=O)c1cn(-c2ccc(CC)cc2)c(=O)c2ccccc12 | 737
48 | CCN1C(=O)C(CC(=O)NCc2ccncc2)Sc2ncccc21 (centres undefined) | 558
49 | COC(=O)C1CCN([C@H]2CS(=O)(=O)C[C@@H]2S(=O)(=O)c2ccc(Cl)cc2)CC1 | 856
50 | O=C(N[C@H](Cc1ccccc1)C(=O)NCc1cscn1)c1cccc(Cl)c1 | 806
51 | CCC(=O)Nc1ccc(CCc2nc3ccc(C(=O)NCc4ccco4)cc3[nH]2)cc1 | 597
52 | Cc1ccc(Nc2c(-c3c(F)cccc3Cl)nc3ccc(C)cn23)cc1 | 773
53 | CCOC(=O)c1c(C)[nH]c(C(=O)N2CCC(CC(=O)NCc3ccc(CC)cc3)CC2)c1C | 869
54 | COCCOc1ccc(C(=O)N2CCNC(=O)C2CC(=O)OC2CCCCC2)cc1 (centres undefined) | 720
55 | CCCn1nc(CNC(=O)c2cccc3[nH]ccc23)c2ccccc21 | 813
56 | CC1CCC(NC(=O)C(Cc2c[nH]c3ccccc23)NC(=O)C2CCC(C)CC2)CC1 (centres undefined) | 1100
57 | COC(=O)c1c(C)[nH]c(C(=O)N2CCCC(C(=O)N3CCN(c4ccc(OC)cc4)CC3)C2)c1C (centres undefined) | 707
58 | CCOc1ccc(NC(=O)NCCn2c(C(F)(F)F)nc3cccnc32)cc1 | 756
59 | CC(C)(C)c1nnc2n(c1=O)N=C(c1ccc(F)cc1)CS2 | 857
60 | O=C(Cn1ccc2sccc2c1=O)Nc1cccc(Br)c1 | 793
61 | O=C(NCCc1ccccc1)C1=Cc2ccccc2OC=C1 | 1010
62 | O=C(CCS(=O)(=O)c1ccccc1)Nc1nc(-c2ccccc2)cs1 | 1120
63 | CC(=O)N1CCc2cc(N3CC(C(=O)N4CCC5(CC4)OCCO5)CC3=O)ccc21 (centres undefined) | 620
64 | CC(C)(C)OC(=O)Nc1ccc(-c2cc(C(=O)NCCCCCCC(=O)NO)no2)cc1 | 739

Row | SMILES | RP-LC retention time [s]
65 | COc1ccccc1CC(=O)N1CCN(c2ccc(-c3ccccn3)nn2)CC1 | 598
66 | Cc1cccc(S(=O)(=O)N2CCC(N3CCN(Cc4ccccc4)C(=O)C3=O)CC2)c1 | 838
67 | COc1ccc(-c2noc(Cc3nnc(-c4ccc(OC)cc4)o3)n2)cc1 | 949
68 | COc1ccc(CCc2nc3nccc(-c4ccccn4)n3n2)cc1OC | 752
69 | Cc1ccc(C)c(NC(=O)Nc2cccc(-c3cn4cccnc4n3)c2)c1 | 696
70 | O=C(c1cccc(Cl)c1)N1CCC2(C1)NC(=O)N(Cc1ccc(F)cc1)C2=O (centres undefined) | 820
71 | COCCCNC(=O)C1Cn2cccc2C(=O)N1CC(C)C (centres undefined) | 646
72 | CC(=O)N1CCC2(CC1)CC(=O)c1ccc(O)c(O)c1O2 | 585
73 | COc1cccc(NS(=O)(=O)c2cn(C(C)C)c3ncccc23)c1 | 846
74 | COc1ccc(N2CCN(C(=O)C3CCCN(S(=O)(=O)c4cn(C(C)C)cn4)C3)CC2)cc1 (centres undefined) | 723
75 | Cc1[nH]nc2ccc(-c3cncc(OC[C@@H](N)Cc4ccccc4)c3)cc12 | 624
76 | O=C1CN(c2ccccc2NC(=O)c2ccc[nH]c2=O)CCN1 | 588
77 | Cc1cccc(NC(=O)Cn2ccc3ccn(C)c3c2=O)c1C | 761
78 | CCOc1cc(=O)n2c(c1C(=O)OCc1ccc(C)cc1)CCCCC2 | 1010
79 | Cc1ccccc1Nc1c(-c2cccc(O)c2)nc2ccc(Br)cn12 | 727
80 | CCc1cccc(NS(=O)(=O)c2cn(CC)c3ncccc23)c1 | 937
81 | Cc1ccc(C)c(-c2coc(-c3ccc(NC(=O)NCCc4ccccc4)cc3)n2)c1 | 1240
82 | O=c1c2nc(-c3ccccc3)cn2ccn1-c1ccc(F)c(Cl)c1 | 853
83 | O=C(CSc1cc(N2CCN(c3ccccc3F)CC2)ncn1)NCCC1=CCCCC1 | 1190
84 | Cn1nc(C(=O)N2CCCC(C(=O)N3CCCC3)C2)c2c1CCN(C(=O)c1c(F)cccc1F)C2 (centres undefined) | 686
85 | CCOC(=O)c1ccccc1NC(=O)CSc1ccc(N2CCCC(C(=O)NC3CC3)C2)nn1 (centres undefined) | 680
86 | COc1ccc(Cl)cc1NC(=O)Nc1ccc2c(c1)CCN2S(=O)(=O)c1ccccc1 | 1090
87 | COc1ccc(OC)c(NC(=O)C2CC(=O)N(c3n[nH]c4cccc(F)c34)C2)c1 (centres undefined) | 732
88 | CC(C)Cc1nc(N2CCN(C(=O)c3ccc([N+](=O)[O-])cc3)CC2)c(C#N)c2c1COC(C)(C)C2 | 1220
89 | COc1ccc(-c2cn3cccnc3n2)cc1NC(=O)c1ccccc1F | 706
